Source: patent US20230125810A1, “DESIGNED BACTERIAL COMPOSITIONS AND USES THEREOF” (Seres Therapeutics, Inc., priority 2019, published 2023)
Read-outs that look alike come from different tables or passages of the source.

Columns and labels:
[1] = system: AhR-mediated cyp1a1 expression; experiment: AhR-mediated cyp1a1 expression in epithelial colonic organoids
Procedure: In FIG. 7A, the metabolites (3-indole acetic acid, 3-methylindole, indole, indoleacrylate, 3-indole butyric acid, and indolepropionic acid, IPA) were added at three different concentrations (50, 100, and 200 μM), with increasing concentrations from right to left. Untreated epithelial organoids (Untd) were used as a negative control. In FIG. 7B, supernatants were collected from cultures containing different bacteria (Clostridium sporogenes 1, Clostridium sporogenes 2, Peptostreptococcus stomatis, Clostridium glycolicum, Bacteroides sp. 4 1 36) and were provided to the epithelial organoids at two different concentrations (5% and 2% final concentration), with the left bar corresponding to the higher concentration. The SCFAs and tryptophan metabolites present in each supernatant (from FIGS. 17 and 18) are indicated. IPA: indolepropionic acid; IAcryl: Indole acrylate; 3Mind: 3-methylindole; I3Carb: indole-3-carbinol; C3: propionate; C4: butyrate; C5: valerate; C6: hexanoate; BCFA: branch chain fatty acids.
AhR activation is reportedly associated with strengthening of the intestinal epithelial barrier and mucosal homeostasis in the intestine by inducing broad changes in gene expression. […] An increase in Cyp1a1 expression is considered to be a specific measure of AhR-mediated gene expression.

[2] = system: TNF-α-driven IL-8 secretion by HT29 epithelial cells; experiment: Anti-inflammatory assay in IECs (TNF-α-driven IL-8 secretion); type: cell-based, human; settings: 1 hour pre-treatment
[3] = system: primary human colon epithelial cell monolayer; experiment: Primary epithelial cell monolayer barrier integrity assay (IFN-γ, FITC-dextran); settings: 5 mM
Procedure: The assays were performed using a primary epithelial cell monolayer barrier integrity assay. […] The addition of interferon-gamma (IFN-γ) disrupts the tight junctions of the epithelial monolayer and induces apoptosis of epithelial cells. The leakiness of the membrane can be assessed by adding FITC-dextran to the apical side of the apparatus and measuring how rapidly it can pass to the basolateral compartment. A leaky monolayer will allow FITC-dextran to the basal side of the apparatus more quickly than a monolayer with an intact monolayer.
Briefly, the barrier integrity assay was conducted as follows. Primary human colon organoid cultures established from isolated colon crypts were grown and expanded in Matrigel® (Corning) and 50% L-cell conditioned medium containing Wnt3a, R-spondin 3 and Noggin (L-WRN) as described by VanDussen et al. containing 10 uM Y-27632 and 10 uM SB43152 (Gut 64:911-920, 2015). […] After the 48-hour incubation, colonic epithelial monolayer permeability was assessed by adding 10 μL of 10 ng/ml FITC-Dextran (4 kDa, Sigma) to the apical interface, the organoids were incubated for 1 hour and then 100 μL of medium was collected from the basolateral compartment of each transwell and transferred to a 96 well plate for fluorescence detection.

[4] = system: clinical remission of ulcerative colitis; type: in vivo, human; settings: UC patients treated with HHSP
[5] = system: HDAC enzymes (HeLa nuclear extract); experiment: HDAC inhibition assay (HDAC-Glo I/II, HeLa nuclear extract); type: biochemical; settings: for HDAC Inhibition in any C source (25/18% cutoff): single strain supernatants, PY medium with one of seven C sources
[6] = GC-MS of SCFAs, MCFAs, BCFAs and tryptophan metabolites in bacterial supernatants; settings: single strain supernatants
From the text: FIG. 18 provides a table listing bacterial species and the short chain fatty acids (SCFAs), medium chain fatty acids (MCFAs), and branched chain fatty acids (BCFAs) produced by each of the species. […] The limit of detection for each of the fatty acids is provided in the row labeled “Limit of Detection (LOD).” The SCFAs measured included: acetic acid, propanoic acid, and butanoic acid. The MCFAs measured included: pentanoic acid, hexanoic acid, heptanoic acid. The BCFAs measured included: 2-methyl-propanopic acid, 3-methyl-butanoic acid, and 4-methyl-pentaoic acid.
FIG. 19 provides a table listing bacterial species and tryptophan metabolites produced by the species. […] The limit of detection for each of the fatty acids is provided in the row labeled “Limit of Detection (LOD).” The tryptophan metabolites measured included: indole, 3-methylindole, indol-3-propanoic acid, indole-3-butyric acid, 3-indoleacrylic acid, tryptamine, indole-3-acetic acid, 3-indole-glycoxylic acid, 2-picolinic acid, and 5-hydroxytryptamine.
As described supra, certain tryptophan (Trp) metabolites were associated with remission in patients treated with an HHSP. […] The presence of the tryptophan metabolites was determined using a colorimetric assay for detection of indolic compounds (Indole Reagent, Anaerob Systems). […]

[7] = intestinal epithelial organoids

Row | Compound | HDAC cluster assignment [5] | HDAC Inhibition in any C source (25/18% cutoff) [5] | also measured
1 | O=C(O)Cc1c[nH]c2ccccc12 [3-indole acetic acid] | – | – | AhR-mediated cyp1a1 expression [1, 7]: induced AhR-mediated cyp1a1 expression
2 | Cc1c[nH]c2ccccc12 [3-methylindole] | – | – | AhR-mediated cyp1a1 expression ([1]; human): induced AhR-mediated cyp1a1 expression
3 | CC(=O)O [acetate] | – | – | TNF-α-dependent IL-8 secretion by IECs [2]: reduced levels of TNF-α-dependent IL-8 secretion
4 | CCCC(=O)O [butyrate] | – | – | decrease of permeability [3]: 50%
5 | c1ccc2[nH]ccc2c1 [indole] | – | – | AhR-mediated cyp1a1 expression [1, 7]: induced AhR-mediated cyp1a1 expression
6 | O=C(O)/C=C/c1c[nH]c2ccccc12 [indoleacrylate] | – | – | AhR-mediated cyp1a1 expression [1, 7]: induced AhR-mediated cyp1a1 expression
7 | CCC(=O)O [propionate] | – | – | TNF-α-dependent IL-8 secretion by IECs [2]: reduced levels of TNF-α-dependent IL-8 secretion
8 | Clostridium bolteae | – | – | Associated Clinical Outcome [4]: Remitter
9 | Clostridium clostridioforme | 6 | 1 (If a strain exhibits HDACi activity of at least 0.25 in any nutrient, or 0.18 in fucose, it is considered to have HDACi activity and it is marked with “1”) | –
10 | Clostridium disporicum | 0 | 1 (If a strain exhibits HDACi activity of at least 0.25 in any nutrient, or 0.18 in fucose, it is considered to have HDACi activity and it is marked with “1”) | –
11 | Clostridium glycolicum | – | – | hexanoate production [6]: Hexanoate producing
12 | Clostridium mayombei | 2 | 1 (If a strain exhibits HDACi activity of at least 0.25 in any nutrient, or 0.18 in fucose, it is considered to have HDACi activity and it is marked with “1”) | –
13 | Clostridium sp 7 2 43FAA | – | 1 (If a strain exhibits HDACi activity of at least 0.25 in any nutrient, or 0.18 in fucose, it is considered to have HDACi activity and it is marked with “1”) | HDAC cluster assignment ([5]; pattern of HDAC inhibition across nutrient sources): 5
14 | Clostridium symbiosum | – | – | Associated Clinical Outcome [4]: Remitter
15 | Clostridium tertium | 5 | 1 (If a strain exhibits HDACi activity of at least 0.25 in any nutrient, or 0.18 in fucose, it is considered to have HDACi activity and it is marked with “1”) | –
16 | Parabacteroides distasonis | 3 | 1 (If a strain exhibits HDACi activity of at least 0.25 in any nutrient, or 0.18 in fucose, it is considered to have HDACi activity and it is marked with “1”) | –
